ON(Cc1ccccc1)Cc1ccccc1
Details | solubility (mole fraction)
in 1,2,4-trichlorobenzene, 293.75 K | 0.00704
in 1,2,4-trichlorobenzene, 299.15 K | 0.0103
in 1,2,4-trichlorobenzene, 303.25 K | 0.0138
in 1,2,4-trichlorobenzene, 308.45 K | 0.0198
in 1,2,4-trichlorobenzene, 313.15 K | 0.0263
in 1,2,4-trichlorobenzene, 318.15 K | 0.0367
in 1,2,4-trichlorobenzene, 323.15 K | 0.0502
in 1,2-dichlorobenzene, 273.15 K | 0.00343
in 1,2-dichlorobenzene, 279.15 K | 0.00486
in 1,2-dichlorobenzene, 283.65 K | 0.00624
in 1,2-dichlorobenzene, 289.15 K | 0.0086
in 1,2-dichlorobenzene, 293.25 K | 0.0106
in 1,2-dichlorobenzene, 298.65 K | 0.0142
in 1,2-dichlorobenzene, 303.25 K | 0.0182
in 1,2-dichlorobenzene, 309.05 K | 0.024
in 1,2-dichlorobenzene, 313.25 K | 0.0302
in 1,2-dichlorobenzene, 318.95 K | 0.0395
in 1,2-dichlorobenzene, 323.35 K | 0.0475
in THF, 273.65 K | 0.051
in THF, 279.15 K | 0.0594
in THF, 284.15 K | 0.0678
in THF, 289.15 K | 0.0773
in THF, 293.75 K | 0.0865
in THF, 299.15 K | 0.0986
in THF, 303.25 K | 0.109
in THF, 308.45 K | 0.123
in THF, 313.15 K | 0.137
in THF, 318.15 K | 0.152
in THF, 323.15 K | 0.169
in acetone, 273.15 K | 0.00762
in acetone, 279.15 K | 0.0102
in acetone, 283.45 K | 0.0124
in acetone, 289.05 K | 0.0159
in acetone, 293.05 K | 0.0186
in acetone, 297.65 K | 0.0229
in acetone, 302.85 K | 0.0282
in acetone, 308.05 K | 0.035
in acetone, 313.15 K | 0.0425
in acetone, 317.15 K | 0.0489
in acetone, 323.15 K | 0.0598
in acetonitrile, 273.15 K | 0.00152
in acetonitrile, 279.15 K | 0.00222
in acetonitrile, 283.45 K | 0.00283
in acetonitrile, 289.05 K | 0.00387
in acetonitrile, 293.05 K | 0.0049
in acetonitrile, 297.65 K | 0.00624
in acetonitrile, 302.85 K | 0.00815
in acetonitrile, 308.05 K | 0.0108
in acetonitrile, 313.15 K | 0.014
in acetonitrile, 317.15 K | 0.0168
in acetonitrile, 323.15 K | 0.0217
in cyclohexanone, 273.15 K | 0.0233
in cyclohexanone, 279.15 K | 0.0292
in cyclohexanone, 283.65 K | 0.0341
in cyclohexanone, 289.15 K | 0.041
in cyclohexanone, 293.25 K | 0.0471
in cyclohexanone, 298.65 K | 0.056
in cyclohexanone, 303.25 K | 0.0654
in cyclohexanone, 309.05 K | 0.0778
in cyclohexanone, 313.25 K | 0.09
in cyclohexanone, 318.95 K | 0.105
in cyclohexanone, 323.35 K | 0.119
in dichloromethane, 273.15 K | 0.0132
in dichloromethane, 279.15 K | 0.0179
in dichloromethane, 283.45 K | 0.0226
in dichloromethane, 289.05 K | 0.0287
in dichloromethane, 293.05 K | 0.0345
in dichloromethane, 297.65 K | 0.0425
in dichloromethane, 302.85 K | 0.0534
in dichloromethane, 308.05 K | 0.0657
in dichloromethane, 312.15 K | 0.0798
in ethanol, 273.15 K | 0.00127
in ethanol, 279.15 K | 0.00172
in ethanol, 283.45 K | 0.00215
in ethanol, 289.05 K | 0.00281
in ethanol, 293.05 K | 0.00342
in ethanol, 297.65 K | 0.00426
in ethanol, 302.85 K | 0.00543
in ethanol, 308.05 K | 0.00695
in ethanol, 313.15 K | 0.00863
in ethanol, 317.15 K | 0.0103
in ethanol, 323.15 K | 0.013
in ethyl acetate, 273.15 K | 0.00842
in ethyl acetate, 279.15 K | 0.0114
in ethyl acetate, 283.45 K | 0.0139
in ethyl acetate, 289.05 K | 0.0178
in ethyl acetate, 293.05 K | 0.0209
in ethyl acetate, 297.65 K | 0.0256
in ethyl acetate, 302.85 K | 0.0317
in ethyl acetate, 308.05 K | 0.0395
in ethyl acetate, 313.15 K | 0.0483
in ethyl acetate, 317.15 K | 0.0551
in ethyl acetate, 323.15 K | 0.0679
in isobutanol, 273.15 K | 0.000771
in isobutanol, 279.15 K | 0.00114
in isobutanol, 283.65 K | 0.00149
in isobutanol, 289.15 K | 0.00208
in isobutanol, 293.25 K | 0.00258
in isobutanol, 298.65 K | 0.00355
in isobutanol, 303.25 K | 0.00446
in isobutanol, 309.05 K | 0.00613
in isobutanol, 313.25 K | 0.00753
in isobutanol, 318.95 K | 0.0097
in isobutanol, 323.35 K | 0.0119
in isopropanol, 273.15 K | 0.000527
in isopropanol, 279.15 K | 0.000822
in isopropanol, 283.65 K | 0.00111
in isopropanol, 289.15 K | 0.00164
in isopropanol, 293.25 K | 0.00206
in isopropanol, 298.65 K | 0.00298
in isopropanol, 303.25 K | 0.00389
in isopropanol, 309.05 K | 0.00542
in isopropanol, 313.25 K | 0.00677
in isopropanol, 318.95 K | 0.00891
in isopropanol, 323.35 K | 0.0114
in methanol, 273.15 K | 0.00126
in methanol, 279.15 K | 0.00171
in methanol, 283.45 K | 0.00209
in methanol, 289.05 K | 0.00276
in methanol, 293.05 K | 0.00333
in methanol, 297.65 K | 0.00409
in methanol, 302.85 K | 0.00513
in methanol, 308.05 K | 0.00648
in methanol, 313.15 K | 0.00795
in methanol, 317.15 K | 0.00934
in methanol, 323.15 K | 0.0117
in n-butanol, 273.15 K | 0.00141
in n-butanol, 279.15 K | 0.00198
in n-butanol, 283.45 K | 0.00248
in n-butanol, 289.05 K | 0.00338
in n-butanol, 293.05 K | 0.00411
in n-butanol, 297.65 K | 0.00509
in n-butanol, 302.85 K | 0.00663
in n-butanol, 308.05 K | 0.00843
in n-butanol, 313.15 K | 0.0108
in n-butanol, 317.15 K | 0.0127
in n-butanol, 323.15 K | 0.0159
in n-octanol, 273.15 K | 0.00126
in n-octanol, 279.15 K | 0.00187
in n-octanol, 283.65 K | 0.00248
in n-octanol, 289.15 K | 0.00352
in n-octanol, 293.25 K | 0.00449
in n-octanol, 298.65 K | 0.00627
in n-octanol, 303.25 K | 0.00789
in n-octanol, 309.05 K | 0.011
in n-octanol, 313.25 K | 0.0136
in n-octanol, 318.95 K | 0.0178
in n-octanol, 323.35 K | 0.022
in n-pentanol, 273.65 K | 0.00163
in n-pentanol, 279.15 K | 0.00226
in n-pentanol, 284.15 K | 0.00291
in n-pentanol, 289.15 K | 0.00386
in n-pentanol, 293.75 K | 0.00479
in n-pentanol, 299.15 K | 0.00631
in n-pentanol, 303.25 K | 0.00766
in n-pentanol, 308.45 K | 0.00965
in n-pentanol, 313.15 K | 0.0121
in n-pentanol, 318.15 K | 0.0151
in n-pentanol, 323.15 K | 0.0185
in n-propanol, 273.15 K | 0.00136
in n-propanol, 279.15 K | 0.00187
in n-propanol, 283.45 K | 0.00232
in n-propanol, 289.05 K | 0.00313
in n-propanol, 293.05 K | 0.00383
in n-propanol, 297.65 K | 0.00476
in n-propanol, 302.85 K | 0.00606
in n-propanol, 308.05 K | 0.00781
in n-propanol, 313.15 K | 0.00991
in n-propanol, 317.15 K | 0.012
in n-propanol, 323.15 K | 0.015
in toluene, 273.15 K | 0.0043
in toluene, 279.15 K | 0.00586
in toluene, 283.65 K | 0.00732
in toluene, 289.15 K | 0.00959
in toluene, 293.25 K | 0.0114
in toluene, 298.65 K | 0.0149
in toluene, 303.25 K | 0.0182
in toluene, 309.05 K | 0.0231
in toluene, 313.25 K | 0.0273
in toluene, 318.95 K | 0.0337
in toluene, 323.35 K | 0.0398
